The results in this text go back to patent US20080039442A1, “Compounds With Kv4 Ion Channel Activity” (Devgen NV, priority 2004, published 2008).

For series [1], the target named is T1, human Kv4.3/KChIP2.2 potassium channel (Homo sapiens, UniProt Q9UK17).
T1 construct: expressed in transfected cells
T1 sequence (Q9UK17 1-655): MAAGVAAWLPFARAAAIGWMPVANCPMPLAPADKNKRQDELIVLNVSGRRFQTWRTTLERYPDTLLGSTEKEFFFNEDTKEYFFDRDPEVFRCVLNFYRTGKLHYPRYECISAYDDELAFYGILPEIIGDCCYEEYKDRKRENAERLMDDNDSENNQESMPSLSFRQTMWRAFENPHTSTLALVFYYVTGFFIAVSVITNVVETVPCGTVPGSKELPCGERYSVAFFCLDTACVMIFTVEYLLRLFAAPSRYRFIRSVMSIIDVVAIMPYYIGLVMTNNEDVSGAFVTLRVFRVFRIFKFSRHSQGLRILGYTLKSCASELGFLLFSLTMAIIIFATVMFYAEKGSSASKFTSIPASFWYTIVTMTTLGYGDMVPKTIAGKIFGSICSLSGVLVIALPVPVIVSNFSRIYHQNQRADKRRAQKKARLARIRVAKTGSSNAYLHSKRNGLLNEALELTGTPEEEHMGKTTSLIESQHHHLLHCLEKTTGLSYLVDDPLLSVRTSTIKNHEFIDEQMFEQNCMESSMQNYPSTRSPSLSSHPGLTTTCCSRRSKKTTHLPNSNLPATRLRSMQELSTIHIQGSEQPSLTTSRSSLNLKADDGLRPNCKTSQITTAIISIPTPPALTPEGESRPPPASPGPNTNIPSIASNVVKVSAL
T1 sequence (Q9NS61 1-270 partner): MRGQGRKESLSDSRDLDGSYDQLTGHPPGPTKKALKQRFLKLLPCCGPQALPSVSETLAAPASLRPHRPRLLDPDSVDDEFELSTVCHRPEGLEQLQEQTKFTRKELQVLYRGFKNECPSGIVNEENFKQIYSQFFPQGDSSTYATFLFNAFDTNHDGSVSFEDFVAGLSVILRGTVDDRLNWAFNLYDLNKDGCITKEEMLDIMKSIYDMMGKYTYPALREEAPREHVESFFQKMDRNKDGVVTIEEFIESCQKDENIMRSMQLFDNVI
Kind of series: Whole cell patch clamp, CHO-K1 cells stably expressing Kv4.3/KChIP2.2. Particulars: CHO-K1, 1 μM. In kind it is cell-based. As for the experimental part:
For this experiment, a recombinant CHO-K1 cell line stably expressing the human Kv4.3/KChIP2.2 potassium channel was used.
Protocol B: The cells were cultured in 94 mm culture dishes under the culturing conditions of 5% CO2 and 37° C. Subculturing was performed every 3-4 days, by removing the media and then rising the dish with 8 ml PBS (phosphate buffered saline). The PBS was removed and 1 ml Trypsin/EDTA was added to the cells. The cells were incubated about 2 min at 37° C. or 5 min at room temperature and then the dish was rapped to detach and singularize the cells. To inactivate the enzyme 9 ml of media was added and the solution was pipetted up and down to break up clumps of cells. Part of the suspension was then transferred to a new 94 mm dish and media was added to a final volume of 8 ml. If necessary the cells could be seeded onto 35 mm or 94 mm dishes (2 ml media per 35 mm dish and 8 ml media per 94 mm dish). The media was changed every 2-3 days. The media used was the solution for culturing the cells described above. For stable cells antibiotic G418, Hygromycin, Blasticidin, or Zeocin were not added.
The preparation of cells for electrophysiological experiments was performed as described in protocol C hereunder.
Protocol C: The transfected cells and stable cells were transferred from 35 mm cell culture dishes onto coverslips using cold PBS: The media was removed and 0.3 ml of PBS (4-10° C.) was added. The cells were incubated 5 min at room temperature. The dish was rapped to detach and singularize the cells and 1.7 ml media was added and the solution pipetted up and down to break up clumps of cells. Part of the cell suspension was then transferred to a 35 mm dish with coverslips and media. The transfected cells and stable cells could also be transferred from 35 mm cell culture dishes onto coverslips using trypsin: The media was removed and the dish rinsed with 3 ml PBS. The PBS was removed and 0.3 ml 1× Trypsin/EDTA was added and the cells incubated 5 min at room temperature. The dish was rapped to detach and singularize the cells and 1.7 ml media was added and the solution pipetted up and down to break up clumps of cells. Part of the cell suspension was then transferred to a 35 mm dish with coverslips and media.
10 mM stock solutions of the compounds were prepared in DMSO. Solutions of the compounds were prepared by dilution of stock solution in bath solution. If the required stock solution volume was theoretically below 1 μl, bath solutions with higher compound concentration were used for dilution. The maximal DMSO concentration during experiments was 0.1% (v/v).
For patch clamp experiments, the following solutions in demineralized water as vehicle were used (concentration in mM).
Bath (external) solution: 4 KCl, 135 NaCl, 2 CaCl2, 1 MgCl2, 10 D(+)-Glucose, 5 HEPES, pH 7.4 (NaOH).
Pipette (internal) solution: 130 KCl, 1 MgCl2, 10 EGTA, 5 Na2ATP, 5 HEPES, pH 7.4 (KOH).
Experiments were performed using a patch clamp set-up.
Measurements were performed at room temperature (20-25° C.). […] Each cell acted as its own control. The effect of compounds on Kv4.3/KChIP2.2 mediated currents was investigated at one concentration ([…]) with two replicates each (c=1, n=2).
The test protocols are illustrated in FIG. 1 and Table 4. […] Each test protocol consisted of 4 segments.
Subsequently, 14 test pulses (series 1; FIG. 1b and Table 4b) were applied at 0.1 Hz under constant superfusion with bath solution. The protocol was initiated by a voltage jump to −100 mV (400 ms) to achieve full inactivation. Then the Kv4.3/KChIP2.2 channels were transferred to the open state by depolarization to +40 mV for 300 milliseconds (activation). Only cells generating current amplitudes between 1 nA and 50 nA were used for the experimental procedure. No or negligible rundown was observed.
Then, 36 test pulses (series 2) were applied at 0.1 Hz under constant superfusion with the compound dissolved in bath solution. […]
Background: Patch clamp records ionic current or voltage across a cell membrane.

Where [2] appears, read: read-out: Kv4.3 charge in %: remaining current measured after application of the compound and relative to the blank.
The mark [3] stands for this setting: read-out: Kv4.3 peak in %: remaining peak height measured after application of the compound and relative to the blank.

Where two headings read alike, the source gives them in different places.

Regarding `O=C(Nc1ccc(Cn2cccn2)cc1)c1cc2cc(Cl)ccc2o1` [Compound 105, 5-chloro-benzofuran-2-carboxylic acid (4-pyrazol-1-ylmethyl-phenyl)-amide], the melting point – broadly, the temperature, or range, at which the solid turns liquid – lay in the range of 197.4 to 198.8 °C. The remaining activity at 1 µM in series [1] (setting [2]) was 90%. Also, the remaining activity at 1 µM in series [1] (setting [3]) was determined as 99%.
For `O=C(c1cc2cc(Cl)ccc2o1)N1CC=C(c2ccc(F)cc2)CC1` [Compound 93, (5-chloro-benzofuran-2-yl)-[4-(4-fluoro-phenyl)-3,6-dihydro-2H-pyridin-1-yl]-methanone], the melting point fell in the range of 111.3 to 116.6 °C. Also, in series [1] (setting [2]), the remaining activity at 1 µM is 73%. Also, the remaining activity at 1 µM in series [1] (setting [3]) was determined as 89%.
Compound `O=C(c1cc2cc(Cl)ccc2o1)N1Cc2ccccc2C1` [Compound 26, (5-chloro-benzofuran-2-yl)-(1,3-dihydro-isoindol-2-yl)-methanone] registered a melting point of 187.1 to 188.5 °C. Moreover, the remaining activity at 1 µM in series [1] (setting [2]) was 81%. For the same compound, the remaining activity at 1 µM in series [1] (setting [3]) came to 99%.
In turn, `O=C(NCc1ccccc1OC(F)(F)F)c1cc2cc(Cl)ccc2o1` [Compound 87, 5-chloro-benzofuran-2-carboxylic acid 2-trifluoromethoxy-benzylamide] registered a melting point of 125.8 to 127.9 °C.
Still for that read-out and setting: under `O=C(NCC1COc2ccccc2O1)c1cc2cc(Cl)ccc2o1` (stereo not drawn) [Compound 113, 5-chloro-benzofuran-2-carboxylic acid (2,3-dihydro-benzo[1,4]dioxin-2-ylmethyl)-amide] stands 121.1 to 124.3 °C; under `COc1ccc(CNC(=O)c2oc3ccc(Cl)cc3c2NC(C)=O)c(OC)c1` [Compound 115, 3-acetylamino-5-chloro-benzofuran-2-carboxylic acid 2,4-dimethoxy-benzylamide], 165.5 to 170.3 °C; under `O=C(c1cc2cc(Cl)ccc2o1)N1CCC(Cc2ccccc2)CC1` [Compound 101, (4-benzyl-piperidin-1-yl)-(5-chloro-benzofuran-2-yl)-methanone], 114.6 to 116.2 °C.
`CSc1ccccc1CNC(=O)c1cc2cc(Cl)ccc2o1` [Compound 60, 5-chloro-benzofuran-2-carboxylic acid 2-methylsulfanyl-benzylamide] showed a melting point of 174.7 to 177.2 °C.
Regarding `O=C(Nc1ccc(N2CCOCC2)cc1)c1cc2cc(Cl)ccc2o1` [Compound 99], the melting point was 223.8 to 225.6 °C.
Turning to `N#Cc1ccc(CNC(=O)c2cc3cc(Cl)ccc3o2)cc1` [Compound 80, 5-chloro-benzofuran-2-carboxylic acid 4-cyano-benzylamide], the melting point lay within 226.6 to 230.4 °C.
Compound `O=C(c1cc2cc(Cl)ccc2o1)N1CCCC1c1ccccc1` (stereo not drawn) [Compound 103, (5-chloro-benzofuran-2-yl)-(2-phenyl-pyrrolidin-1-yl)-methanone] returned a melting point of 123.3 to 125.4 °C.
The same measure, in the same setting: as for `CN(C)C(=O)c1cccc(CNC(=O)c2cc3cc(Cl)ccc3o2)c1` [Compound 66, 5-chloro-benzofuran-2-carboxylic acid 3-dimethylcarbamoyl-benzylamide], the figure is 105.1 to 109.4 °C; as for `O=C(N[C@H](C(=O)O)c1ccccc1)c1cc2cc(Cl)ccc2o1` [Compound 41, (S)-[(5-chloro-benzofuran-2-carbonyl)-amino]-phenyl-acetic acid], 211.2 to 215.6 °C.
`Cc1cc(Cl)cc(Cl)c1CNC(=O)c1cc2cc(Cl)ccc2o1` [Compound 119, 5-chloro-benzofuran-2-carboxylic acid 2,4-dichloro-6-methyl-benzylamide] came in with a melting point of 210 to 212 °C.
As for `CN(C)S(=O)(=O)c1ccc(CNC(=O)c2cc3cc(Cl)ccc3o2)cc1` [Compound 67, 5-chloro-benzofuran-2-carboxylic acid 4-dimethylsulfamoyl-benzylamide], the melting point fell in the range of 163.9 to 166.6 °C.
On the same count and under the same terms, under `O=C(NCc1ccccc1-c1ccccc1)c1cc2cc(Cl)ccc2o1` [Compound 72, 5-chloro-benzofuran-2-carboxylic acid (biphenyl-2-ylmethyl)-amide] stands 129.8 to 132.8 °C.
Still for that read-out and setting: under `Cc1cccc(Cl)c1CNC(=O)c1sc2ccc(Cl)cc2c1C` [Compound 110, 5-chloro-3-methyl-benzo[b]thiophene-2-carboxylic acid 2-chloro-6-methyl-benzylamide] stands 180.5 to 182 °C.
`O=C(NCc1ccc(Br)cc1)c1cc2cc(Cl)ccc2o1` [Compound 77, 5-chloro-benzofuran-2-carboxylic acid 4-bromo-benzylamide] yielded a melting point of 192.3 to 193.8 °C.
As to `O=C(NCc1ccc(-c2cnns2)cc1)c1cc2cc(Cl)ccc2o1` [Compound 91, 5-chloro-benzofuran-2-carboxylic acid 4-[1,2,3]thiadiazol-5-yl-benzylamide], the melting point lay in the range of 178.1 to 181.8 °C.
Compound `CC[C@H](NC(=O)c1cc2cc(Cl)ccc2o1)c1ccccc1` [Compound 59, 5-chloro-benzofuran-2-carboxylic acid ((S)-1-phenyl-propyl)-amide] returned a melting point of 110.1 to 111.3 °C.
In turn, `COC(=O)[C@@H](NC(=O)c1cc2cc(Cl)ccc2o1)c1ccccc1` [Compound 85, (S)[(5-chloro-benzofuran-2-carbonyl)-amino]-phenyl-acetic acid methyl ester] gave a melting point of 76.5 to 79.1 °C.
In turn, `O=C(NCc1ccc(Oc2ccccc2)cc1)c1cc2cc(Cl)ccc2o1` [Compound 68, 5-chloro-benzofuran-2-carboxylic acid 4-phenoxy-benzylamide] had a melting point of 93.6 to 95.5 °C.
For `O=C(NCc1cccc(OC(F)(F)F)c1)c1cc2cc(Cl)ccc2o1` [Compound 88, 5-chloro-benzofuran-2-carboxylic acid 3-trifluoromethoxy-benzylamide], the melting point lay in the range of 133.5 to 137.9 °C.
On the same count and under the same terms, as for `CC[C@@H](NC(=O)c1cc2cc(Cl)ccc2o1)c1ccccc1` [Compound 58, 5-chloro-benzofuran-2-carboxylic acid ((R)-1-phenyl-propyl)-amide], the figure is 118.5 to 120.7 °C.
